This note sets out measurements from US7223733B2, “Modulation of TRIP-Br function and method of treating proliferative disorders” (National University of Singapore, priority 2004, dated 2007).

Where no end group is shown, it is not given here. [invdT] = inverted (3'-3') thymidine

For data set [1], the system named is Caski (cervical carcinoma). Briefly: Anti-proliferative phenotypes in Caski cells. The class given is cell-based. As to conditions: data not shown.
The test system of data set [2] is WI-38 cells. In words: Colony formation assay of WI-38 cells (crystal violet). The class given is cell-based, human. As to conditions: WI-38, serum-induced, 72 h. The method, then: (§1) DNA enzyme transfection. WI-38 cells were rendered quiescent by cultivation in serum-free medium for 72 h before being transfected with DNA enzyme (0.1 μM) using Superfect as reported previously (Santiago, F. S., et al. Nat Med 5, 1264-1269 (1999)) in accordance to manufacturer's recommendations (Qiagen).
Cell proliferation assays. For the BrdU incorporation assays, growth-quiescent WI-38 cells in 96-well dishes were transfected with DNA enzyme and/or 100 ng of pCMV/E2F1, pCMV/DP1, pRSV/Cyclin E, or pCMV/Cdk2 and then exposed to Bromodeoxyuridine (BrdU, 100 μM) in the presence or absence of 10% FBS for 20 h. Bromodeoxyuridine (BrdU) incorporation was monitored with a calorimetric ELISA assay using a cell proliferation kit according to manufacturer's recommendations (Boehringer Mannheim). For manual cell count, growth-quiescent WI-38 cells in 24-well dishes were transfected with DNA enzyme and then exposed to 10% FBS for 72 h. The cells were rinsed with PBS, pH 7.4, and trypsinized, and 10 μl of cell suspension was taken from each sample and mixed with equal volume of trypan blue stain (Sigma, 0.4% w/v in 1×PBS). The number of unstained cells was enumerated manually using a hemocytometer. […] Cells were stained in situ with crystal violet (0.75% w/v hexamethyl-p-rosaniline chloride [SIGMA], 50% ethanol, 1.75% w/v paraformaldehyde, 0.25% w/v NaCl) for 10 min, and then rinsed thoroughly with deionized water to remove excess stains.
FIG. 12: (A) E-Br1 or E-Br2 inhibits cell proliferation. Sub-confluent WI-38 cells were serum-starved for 72 h. Following DNA enzyme transfection, the cultures were re-stimulated with serum and allowed to proliferate. After 72 h, cells were harvested for viable cell count analysis. 10 μl of cell suspension from each sample was mixed with equal volume of 0.4% trypan blue stain. The number of unstained cells was enumerated manually using a hemocytometer. Data represent the average of at least two independent experiments. […] (B) E-Br1 or E-Br2 suppresses colony formation. Sub-confluent WI-38 cells were serum-starved for 72 h. […]

Data set [3] has as its system WI-38 cells. In words: BrdU incorporation, serum-induced S phase entry of WI-38 cells. It is filed as cell-based, human. The following applies: WI-38, 0.1 μM, 20 h; compared to unstimulated cells. The method, then: as §1
(§2) Cell proliferation assays. For the BrdU incorporation assays, growth-quiescent WI-38 cells in 96-well dishes were transfected with DNA enzyme and/or 100 ng of pCMV/E2F1, pCMV/DP1, pRSV/Cyclin E, or pCMV/Cdk2 and then exposed to Bromodeoxyuridine (BrdU, 100 μM) in the presence or absence of 10% FBS for 20 h. Bromodeoxyuridine (BrdU) incorporation was monitored with a calorimetric ELISA assay using a cell proliferation kit according to manufacturer's recommendations (Boehringer Mannheim). For manual cell count, growth-quiescent WI-38 cells in 24-well dishes were transfected with DNA enzyme and then exposed to 10% FBS for 72 h. The cells were rinsed with PBS, pH 7.4, and trypsinized, and 10 μl of cell suspension was taken from each sample and mixed with equal volume of trypan blue stain (Sigma, 0.4% w/v in 1×PBS). The number of unstained cells was enumerated manually using a hemocytometer. For colony formation assays, growth-quiescent WI-38 cells in 12-well dishes were transfected with DNA enzyme and then exposed to 10% FBS for 120 h. Cells were stained in situ with crystal violet (0.75% w/v hexamethyl-p-rosaniline chloride [SIGMA], 50% ethanol, 1.75% w/v paraformaldehyde, 0.25% w/v NaCl) for 10 min, and then rinsed thoroughly with deionized water to remove excess stains.
FIG. 13: (A) E-Br1 or E-Br2 suppresses serum-inducible S phase entry. Sub-confluent WI-38 cells were serum-starved for 72 h. Following DNA enzyme transfection, the cultures were re-stimulated with serum and allowed to proliferate in BrdU labeling medium. After 20 h, cells were assayed for BrdU incorporation with a colorimetric ELISA assay. Values represent the average of at least two independent experiments. […] Sub-confluent WI-38 cells were serum-starved for 72 h. […]
On the technique in general: Incorporation of labelled thymidine or its analogues reports DNA synthesis.

Data set [4] has as its system WI-38 cells. Briefly: BrdU incorporation, E2F1/DP1 and cyclin E/Cdk2-induced S phase entry of quiescent WI-38 cells. The class given is cell-based, human. The following applies: quiescent WI-38, 0.1 μM. As for the experimental part:
as §2
FIG. 13: (A) E-Br1 or E-Br2 suppresses serum-inducible S phase entry. […]

Data set [5] deals with cyclin E, Cdk4, cyclin D1 and p27^KIP1. In words: Western blot of cyclin E, Cdk4, cyclin D1 and p27KIP1 in WI-38 cells. It is filed as cell-based, human. As to conditions: WI-38, 20 h. As for the experimental part: Western blotting analysis. Cells in 6-well culture dish were washed in cold PBS and lysed in sample buffer (50 mM Tris-Cl, pH 6.8, 2% SDS, 10% glycerol, 0.1% bromophenol blue and 100 mM DTT). Whole cell lysates were heated at 100° C. for 10 minutes prior to electrophoresis. Separation of complex protein mixtures was achieved using a discontinuous polyacrylamide gel electrophoresis system consisting of a stacking gel and a 10% separating gel. Electrophoresis was performed with 1× running buffer (25 mM Tris pH 8.6, 0.19 M glycine, 0.1% SDS) in a mini vertical electrophoresis apparatus (BIO-RAD) at constant voltage (80 V). Separated proteins were transferred to nitrocellulose membrane (Immobilon™-P, Millipore) by electro-blotting (30V overnight at 4° C.) in transfer buffer (50 mM Tris, 384 mM glycine, 20% methanol, 0.01% SDS). Following blocking (1×PBS, 0.5% Tween 20, 4% [w/v] non-fat milk), target proteins were detected using a 1:2,500 dilution of specific primary antibodies. Anti-mouse or anti-rabbit IgG antibodies conjugated with horseradish peroxidase (Santa Cruz) were used to visualize immunoreactive proteins at 1:2,500 dilutions using enhanced chemiluminescence (Pierce).
FIG. 14: (A) E-Br1 or E-Br2 attenuates mitogen-stimulated CCNE gene induction. Sub-confluent WI-38 cells were serum-starved for 72 h. Following DNA enzyme transfection, the cultures were re-stimulated with serum and allowed to proliferate. After 20 h, cells were harvested and total RNA extracted for semi-quantitative RT-PCR to assess CCNE expression. β-actin was included as an internal control. PCR products were resolved by agarose gel electrophoresis and ethidium bromide-stained DNA bands were visualized under UV. […] Sub-confluent WI-38 cells were serum-starved for 72 h. Following transfection with DNA enzyme, the cultures were allowed to proliferate. After 20 h, cells were harvested for western blot (WB) analysis of cyclin E, Cdk4, cyclin D1 and p27^KIP1 expression. Coomassie-stained protein was included as control for normalization.

On to “ERQIKIWFQNRRMKWKKTGFLTDLTLDDILFADID (ERQIKIWFQNRRMKWKKTGFLTDLTLDDILFADID-NH2) [*Br2]”, for which the “response of Caski cells” value in data set [1] is “in manners similar to those exhibited by U2OS cells”.
As to “5′-T TACCCAACAGGCTAGCTACAACGAATATCACA-3′ (DNA TTACCCAACAGGCTAGCTACAACGAATATCACA; DNA, 3' [invdT], backbone not given here) [E-Br2]”, the colony forming potential result with WI-38 cells [2] was “significantly reduced colony forming potential”. The “BrdU incorporation on serum stimulation” value with WI-38 cells [3] was “significantly inhibited”. The “S phase entry induced by co-expression of E2F1/DP1 and cyclin E/Cdk2” value with WI-38 cells [4] is reported as “does not influence”. Also, in data set [5], the “expression of Cdk4, cyclin D1 and p27^KIP1” value is reported as “without altering the expression”; the “mitogen-induced cyclin E protein expression” value is given as “prevents mitogen-induced cyclin E expression”.
“5′-T TGCTCAGCAGGCTAGCTACAACGACTTGCTCA-3′ (DNA TTGCTCAGCAGGCTAGCTACAACGACTTGCTCA; DNA, 3' [invdT], backbone not given here) [E-Br1]”: the colony forming potential result with WI-38 cells [2] was “significantly reduced colony forming potential”. For the same substance, the “BrdU incorporation on serum stimulation” value in the data set on WI-38 cells [3] is recorded as “significantly inhibited”. In addition, the “S phase entry induced by co-expression of E2F1/DP1 and cyclin E/Cdk2” value in the data set with WI-38 cells [4] is on record as “does not influence”. Further, in data set [5], the “expression of Cdk4, cyclin D1 and p27^KIP1” value is listed as “without altering the expression”; the “mitogen-induced cyclin E protein expression” value was “prevents mitogen-induced cyclin E expression”.
“ERQIKIWFQNRRMKWKKATGCLLDDGLEGLFEDID (ERQIKIWFQNRRMKWKKATGCLLDDGLEGLFEDID-NH2) [*Br1]”: the “response of Caski cells” value in data set [1] is given as “in manners similar to those exhibited by U2OS cells”.
